{"source": "paper PMC7136958", "about": "“Targeting the pregnane X receptor using microbial metabolite mimicry” (EMBO Molecular Medicine, 2020)", "key": {"P300": {"target": "T1, P300 (Homo sapiens, UniProt Q09472)", "T1 construct": "or p300 (aa 1284-1672); purchased Reaction Biology Corp; host or cells: E. coli", "T1 sequence (Q09472 1284-1672)": "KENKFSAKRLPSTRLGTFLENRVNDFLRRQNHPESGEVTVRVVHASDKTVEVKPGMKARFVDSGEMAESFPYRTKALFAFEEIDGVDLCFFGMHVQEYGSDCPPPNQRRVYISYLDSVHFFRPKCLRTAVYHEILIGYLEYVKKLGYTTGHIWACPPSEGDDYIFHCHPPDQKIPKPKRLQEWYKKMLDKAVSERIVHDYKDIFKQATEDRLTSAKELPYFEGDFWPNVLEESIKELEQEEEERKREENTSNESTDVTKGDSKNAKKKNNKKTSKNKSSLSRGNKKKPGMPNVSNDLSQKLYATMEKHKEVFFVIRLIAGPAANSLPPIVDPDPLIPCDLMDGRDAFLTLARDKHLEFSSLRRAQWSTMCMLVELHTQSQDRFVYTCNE", "assay": "Histone acetyltransferase assay p300 (Reaction Biology)", "type": "biochemical", "procedure": "Software Tool and reprinted with permission from KINOME scan®, a division of DiscoveRx […]\nThe following […] assays (HDAC, SIRT1, PRMT1, PARP1, p300, pCAF) were performed by Reaction Biology Corp. FKK6 was screened at a single concentration of 10 μM in duplicate in two separate experiments. The appropriate controls for the individual assays are published. The overall […]\nenzyme activity in the assay is reported as a % activity in DMSO control wells. Control IC50 […]\nBriefly, for the Sirtuin (SIRT1) assay, human SIRT1 (GenBank\nAccession No. NM012238) full -length N-terminal His-tag protein (MW 83.2 kDa) was purified after expression in E. coli. […]\n8), 50 mM NaCl, 0.1 mM EDTA, 1 mM DTT, 1 mM PMSF, and 1% DMSO. […] The radioactivity in mixture is detected on washed filter paper using a scintillation counter. […]\nThe 2X HDAC substrate is a fluorogenic acetylated peptide from p53 (residues 379 - 38 2 RHKK(Ac)AMC) which is mixed in with the enzyme-compound complex and incubated for 1-2 h at 30 °C. In the development step, a proprietary developer with trichostatin A (or TMP269) is added to stop the reaction and to generate fluorescent color which is read using an EnVision Multilabel Plate Reader (Perkin Elmer) (Ex 360 nm/ Em 460 nm). […]"}, "JNK1": {"target": "JNK1 (Homo sapiens, UniProt P45983)", "sequence (P45983 whole entry)": "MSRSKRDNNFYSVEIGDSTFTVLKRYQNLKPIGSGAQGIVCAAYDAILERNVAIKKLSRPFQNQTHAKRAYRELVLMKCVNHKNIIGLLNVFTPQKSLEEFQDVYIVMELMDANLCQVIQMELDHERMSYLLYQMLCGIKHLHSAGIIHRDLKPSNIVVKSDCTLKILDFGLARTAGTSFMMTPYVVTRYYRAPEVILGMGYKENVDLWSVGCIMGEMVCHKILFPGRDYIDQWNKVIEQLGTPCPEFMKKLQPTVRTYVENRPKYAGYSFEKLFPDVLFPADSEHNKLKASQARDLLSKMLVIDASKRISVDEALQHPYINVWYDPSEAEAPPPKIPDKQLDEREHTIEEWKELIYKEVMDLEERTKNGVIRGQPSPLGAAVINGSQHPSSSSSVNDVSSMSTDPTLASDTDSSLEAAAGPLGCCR", "assay": "KINOMEscan select kinase screen", "type": "binding", "conditions": "two experiments", "procedure": "(§1) Kinase Assays. The kinase inhibition assays were conducted by DiscoverX on a platform assay by Ambit BioSciences as described previously 16,17. FKK6 was screened at a single concentration of 10 μM in duplicate. The scanMAXSM assay panel measures 468 kinases\n(§2) (https://www.discoverx.com/services/drug-discovery-development-services/kinase-profiling/kinomescan/scanmax). The assays measure a compound’s ability to inhibit binding of a canonical ligand substrate, with 0% activity of control corresponding to full inhibition and 100% activity of control to no inhibition. […]"}, "JNK2": {"target": "JNK2 (Homo sapiens, UniProt P45984)", "sequence (P45984 whole entry)": "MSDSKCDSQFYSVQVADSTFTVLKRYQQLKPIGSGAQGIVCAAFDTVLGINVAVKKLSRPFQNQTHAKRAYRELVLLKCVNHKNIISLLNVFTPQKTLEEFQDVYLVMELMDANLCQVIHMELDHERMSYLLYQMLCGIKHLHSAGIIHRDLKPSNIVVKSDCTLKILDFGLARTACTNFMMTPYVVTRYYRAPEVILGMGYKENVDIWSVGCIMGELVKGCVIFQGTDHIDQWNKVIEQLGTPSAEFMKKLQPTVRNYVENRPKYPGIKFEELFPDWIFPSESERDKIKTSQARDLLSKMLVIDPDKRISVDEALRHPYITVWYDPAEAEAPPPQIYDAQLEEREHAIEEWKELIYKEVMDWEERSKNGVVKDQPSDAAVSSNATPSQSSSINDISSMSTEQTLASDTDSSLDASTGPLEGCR", "assay": "KINOMEscan select kinase screen", "type": "binding", "conditions": "two experiments", "procedure": "as §1, §2"}, "S6K1": {"target": "S6K1 (Homo sapiens, UniProt P23443)", "sequence (P23443 whole entry)": "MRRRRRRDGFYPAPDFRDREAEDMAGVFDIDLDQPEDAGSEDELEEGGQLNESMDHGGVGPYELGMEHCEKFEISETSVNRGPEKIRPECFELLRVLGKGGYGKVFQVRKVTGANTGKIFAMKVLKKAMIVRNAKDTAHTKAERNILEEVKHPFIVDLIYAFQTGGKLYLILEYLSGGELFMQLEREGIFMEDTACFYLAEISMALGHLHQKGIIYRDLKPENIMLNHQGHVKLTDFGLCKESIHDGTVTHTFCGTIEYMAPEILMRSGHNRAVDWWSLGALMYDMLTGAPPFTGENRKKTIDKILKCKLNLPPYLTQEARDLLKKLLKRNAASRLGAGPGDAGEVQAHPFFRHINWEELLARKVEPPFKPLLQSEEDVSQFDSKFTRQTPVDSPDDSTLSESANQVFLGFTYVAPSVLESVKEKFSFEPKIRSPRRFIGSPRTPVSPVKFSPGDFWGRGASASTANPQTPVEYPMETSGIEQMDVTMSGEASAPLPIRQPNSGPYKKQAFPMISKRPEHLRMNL", "assay": "KINOMEscan select kinase screen", "type": "binding", "conditions": "two experiments", "procedure": "as §1, §2"}}, "note": "“And” between values parts separate entries of the source, which are not always exact repeats. Equal values may be shown once.", "data": [{"smiles": "C#CCC(O)(c1ccncc1)c1cc2ccccc2n1S(=O)(=O)c1ccccc1", "note": "(stereo not shown) [FKK6]", "values": [{"measurement": "% Enzyme Activity to DMSO controls", "setting": "P300; 10 μM, substrate Histone H3, replicates data1/2 Exp 1/2", "value": "97.73% and 98.72% and 95.38%"}, {"measurement": "remaining activity at 10 µM", "setting": "P300; substrate Histone H3, replicates data1/2 Exp 1/2, read-out: % Enzyme Activity to DMSO controls", "value": 100, "unit": "%"}]}, {"smiles": "O=C(c1ccncc1)c1cc2ccccc2n1S(=O)(=O)c1ccccc1", "note": "[FKK5, (1-(phenylsulfonyl)-1H-indol-2-yl)(pyridin-4-yl)methanone]", "values": [{"measurement": "%Ctrl", "setting": "JNK1; 10000 nM, 10 µM", "value": 95, "unit": "%Ctrl"}, {"measurement": "remaining binding at 10 µM", "setting": "JNK1; 10000 nM, read-out: %Ctrl", "value": 91, "unit": "%"}, {"measurement": "%Ctrl", "setting": "JNK1; 25000 nM, 25 µM", "value": 85, "unit": "%Ctrl"}, {"measurement": "remaining binding at 25 µM", "setting": "JNK1; 25000 nM, read-out: %Ctrl", "value": 66, "unit": "%"}, {"measurement": "%Ctrl", "setting": "JNK2; 10000 nM, 10 µM", "value": 88, "unit": "%Ctrl"}, {"measurement": "remaining binding at 10 µM", "setting": "JNK2; 10000 nM, read-out: %Ctrl", "value": 95, "unit": "%"}, {"measurement": "%Ctrl", "setting": "JNK2; 25000 nM, 25 µM", "value": 80, "unit": "%Ctrl"}, {"measurement": "remaining binding at 25 µM", "setting": "JNK2; 25000 nM, read-out: %Ctrl", "value": 74, "unit": "%"}, {"measurement": "%Ctrl", "setting": "S6K1; 10000 nM, 10 µM", "value": "79 %Ctrl and 100 %Ctrl"}, {"measurement": "%Ctrl", "setting": "S6K1; 25000 nM, 25 µM", "value": 89, "unit": "%Ctrl"}, {"measurement": "remaining binding at 25 µM", "setting": "S6K1; 25000 nM, read-out: %Ctrl", "value": 71, "unit": "%"}]}]}
